In patent US20250041476A1, “ENHANCED PERFORMANCE SOLUTION FOR TISSUE GRAFTS” (The Curators of the University of Missouri, priority 2020, published 2025):

Experiments:
[1] = Modulated differential scanning calorimetry of tissue scaffolds; type: physicochemical
Protocol: Following crosslinking, five specimens (n=5) from the 7 treatment types were rinsed in DI water and placed in an aluminum pan with a hermetic lid. The treatment types were EDC/NHS, untreated, 15 minutes crosslinking with 3 mM genipin, 4 hours crosslinking with 3 mM genipin, 8 hours crosslinking with 3 mM genipin, 24 hours crosslinking with 3 mM genipin, and 24 hours crosslinking with 10 mM genipin. The 10 mM treatment type was added to verify that increasing the genipin concentration would further increase the amount of crosslinking that occurred. The reference pan consisted of an aluminum pan containing […] of double distilled water and sealed with a hermetic lid. Each specimen was then subjected to modulated differential scanning calorimetry using a Q2000 DSC (TA Instruments, New Castle, DE, USA) to raise the temperature from 5° C. to 120° C. at a rate of 5° C. per minute with a modulation of ±0.64° C. every 80 s. The mean denaturation temperature is reported.

[2] = system: L929 mouse connective tissue fibroblasts; experiment: Cell proliferation reagent WST-1 cell viability assay on scaffolds; type: cell-based; conditions: scaffolds crosslinked with 3 mM genipin
Protocol: L-929 mouse fibroblast cells were obtained from ATCC (Manassas, VA). They were cultured in EMEM (ATCC, Manassas, VA, USA) supplemented with 10% (v/v) horse serum (Sigma-Aldrich, St. Louis, MO, USA) and 200 U mL^−1 penicillin-streptomycin (Sigma-Aldrich, St. Louis, MO, USA) solution in an incubator at 37° C. and 5% CO2. 1 mL of 3×10^4 cell/mL cell solution was plated on each scaffold and allowed to grow for 1, 3, 7, or 10 days with fresh media being replaced every […].
Cell proliferation reagent WST-1 (Roche Diagnostics Corporation, Indianapolis, IN, USA) was used to evaluate the biocompatibility of the scaffolds. The WST-1 assay works via the use of tetrazolium salts. The salts were added to wells containing cells and the tissue discs. The tetrazolium salts were then cleaved to formazan by mitochondrial dehydrogenase activity. This correlates to the number of metabolically active cells. The resulting formazan was quantified using UV-vis absorbance measurements. […] After gentle mixing, 100 μL was removed from each well and absorbance readings were acquired using a Tecan Safire II plate reader. The resulting values were then calculated relative to the absorbance found on the untreated control scaffold. […]

[3] = system: integrin β1; conditions: chondrocytes; cited from earlier work

In the case of COC(=O)C1=CO[C@@H](O)[C@@H]2C(CO)=CC[C@H]12 [genipin, methyl (1S,2R,6S)-2-hydroxy-9-(hydroxymethyl)-3-oxabicyclo[4.3.0]nona-4,8-diene-5-carboxylate], the “Denaturation temperature of tissue scaffold” value ([1]; 15 minutes of genipin crosslinking, 3 mM, vs untreated) is reported as “significantly increases”, the “Denaturation temperature of tissue scaffold” value ([1]; 24 hours of crosslinking, 3 mM genipin) is reported as “significant increase” and the “Denaturation temperature of tissue scaffold” value ([1]; higher genipin concentration (10 mM vs 3 mM), 24 hours) is reported as “significantly increased”. The “Cytotoxicity (biocompatibility results)” value [2] was “not cytotoxic” and the “mRNA expression of integrin β1” value [3] was “halved”.
